Measurements: US20260217765A1, “NOVEL ANTIMICROBIAL PEPTIDE DESIGNED FROM DUCK-DERIVED ANTIMICROBIAL PEPTIDE ANDUSE THEREOF” (INDUSTRY-ACADEMIC COOPERATION FOUNDATION, CHOSUN UNIVERSITY, priority 2023, published 2026)
In brackets after ≈: the same amount, converted by molar mass. Peptide text beside a SMILES is read from it.

Legend:
[1] = system: Pseudomonas aeruginosa ATCC 27853; assay type: cell-based
From the text: (§1) To compare the antimicrobial activity of the peptides prepared in <Example 1>, the minimum inhibitory concentration (MIC), […] measured. Here, the minimal inhibitory concentration (MIC) refers to the lowest concentration of a substance that prevents visible bacterial growth.
(§2) Specifically, the bacterial strains listed in Table 2 below were obtained and cultured in media suitable for each strain until the mid-log phase. The cultures were then diluted to a concentration of 2×10^4 cells/100 μL and prepared in microtiter plates (Nunc, USA). Subsequently, serial 2-fold dilutions of the peptides prepared in Example 1 were prepared, and 10 μL of each dilution was added to the wells, and the plates were incubated at 37° C. for 18 hours. Absorbance at 600 nm was measured using a microtiter plate reader (Merck ELISA reader, Germany) to determine the MIC values for each bacterial strain. The parent peptide dCATH was used as a control.

[2] = system: Listeria monocytogenes KCTC 3710; assay type: cell-based
From the text: as §1, §2

[3] = system: Staphylococcus aureus ATCC 25923; assay type: cell-based; details: for MIC: ATCC 25923
From the text: as §1, §2

[4] = system: Escherichia coli ATCC 25922; assay type: cell-based
From the text: as §1, §2

[5] = system: Acinetobacter baumannii KCTC 1017; assay type: cell-based; details: for MIC: KCTC 1017
From the text: as §1, §2

[6] = system: Bacillus cereus KCTC 2508; assay type: cell-based
From the text: as §1, §2

[7] = system: Acinetobacter baumannii_isolate 24 (antibiotic-resistant); assay type: cell-based, Acinetobacter baumannii; details: isolate 24 (antibiotic-resistant)
From the text: as §1, §2

[8] = system: Acinetobacter baumannii_isolate21 (antibiotic-resistant); assay type: cell-based, Acinetobacter baumannii; details: isolate21 (antibiotic-resistant)
From the text: as §1, §2

[9] = system: Acinetobacter baumannii_isolate20 (antibiotic-resistant); assay type: cell-based, Acinetobacter baumannii; details: isolate20 (antibiotic-resistant)
From the text: as §1, §2

[10] = system: Acinetobacter baumannii_isolate15 (antibiotic-resistant); assay type: cell-based, Acinetobacter baumannii; details: isolate15 (antibiotic-resistant)
From the text: as §1, §2

[11] = system: Acinetobacter baumannii_isolate 12 (antibiotic-resistant); assay type: cell-based, Acinetobacter baumannii; details: isolate 12 (antibiotic-resistant)
From the text: as §1, §2

[12] = system: Acinetobacter baumannii_isolate 13 (antibiotic-resistant); assay type: cell-based, Acinetobacter baumannii; details: isolate 13 (antibiotic-resistant)
From the text: as §1, §2

[13] = system: Acinetobacter baumannii_isolate 5 (antibiotic-resistant); assay type: cell-based, Acinetobacter baumannii; details: isolate 5 (antibiotic-resistant)
From the text: as §1, §2

[14] = system: Acinetobacter baumannii_isolate 6 (antibiotic-resistant); assay type: cell-based, Acinetobacter baumannii; details: isolate 6 (antibiotic-resistant)
From the text: as §1, §2

[15] = system: Acinetobacter baumannii_isolate 25 (antibiotic-resistant); assay type: cell-based, Acinetobacter baumannii; details: isolate 25 (antibiotic-resistant)
From the text: as §1, §2

[16] = system: Acinetobacter baumannii_isolate 22 (antibiotic-resistant); assay type: cell-based, Acinetobacter baumannii; details: isolate 22 (antibiotic-resistant)
From the text: as §1, §2

[17] = system: Acinetobacter baumannii_isolate 2 (antibiotic-resistant); assay type: cell-based, Acinetobacter baumannii; details: isolate 2 (antibiotic-resistant)
From the text: as §1, §2

[18] = system: Acinetobacter baumannii_isolate 4 (antibiotic-resistant); assay type: cell-based, Acinetobacter baumannii; details: isolate 4 (antibiotic-resistant)
From the text: as §1, §2

[19] = system: Acinetobacter baumannii_isolate 10 (antibiotic-resistant); assay type: cell-based, Acinetobacter baumannii; details: isolate 10 (antibiotic-resistant)
From the text: as §1, §2

[20] = system: Acinetobacter baumannii_isolate11 (antibiotic-resistant); assay type: cell-based, Acinetobacter baumannii; details: isolate11 (antibiotic-resistant)
From the text: as §1, §2

[21] = system: Acinetobacter baumannii_isolate 18 (antibiotic-resistant); assay type: cell-based, Acinetobacter baumannii; details: isolate 18 (antibiotic-resistant)
From the text: as §1, §2

[22] = system: Acinetobacter baumannii_isolate 3 (antibiotic-resistant); assay type: cell-based, Acinetobacter baumannii; details: isolate 3 (antibiotic-resistant)
From the text: as §1, §2

[23] = system: Acinetobacter baumannii_isolate 17 (antibiotic-resistant); assay type: cell-based, Acinetobacter baumannii; details: isolate 17 (antibiotic-resistant)
From the text: as §1, §2

[24] = system: Acinetobacter baumannii_isolate16 (antibiotic-resistant); assay type: cell-based, Acinetobacter baumannii; details: isolate16 (antibiotic-resistant)
From the text: as §1, §2

[25] = system: Acinetobacter baumannii_isolate 19 (antibiotic-resistant); assay type: cell-based, Acinetobacter baumannii; details: isolate 19 (antibiotic-resistant)
From the text: as §1, §2

[26] = system: Acinetobacter baumannii_isolate 23 (antibiotic-resistant); assay type: cell-based, Acinetobacter baumannii; details: isolate 23 (antibiotic-resistant)
From the text: as §1, §2

[27] = system: Acinetobacter baumannii_isolate 26 (antibiotic-resistant); assay type: cell-based, Acinetobacter baumannii; details: isolate 26 (antibiotic-resistant)
From the text: as §1, §2

[28] = system: Acinetobacter baumannii_isolate 1 (antibiotic-resistant); assay type: cell-based, Acinetobacter baumannii; details: isolate 1 (antibiotic-resistant)
From the text: as §1, §2

[29] = system: Acinetobacter baumannii_isolate 8 (antibiotic-resistant); assay type: cell-based, Acinetobacter baumannii; details: isolate 8 (antibiotic-resistant)
From the text: as §1, §2

[30] = system: Acinetobacter baumannii_isolate 9 (antibiotic-resistant); assay type: cell-based, Acinetobacter baumannii; details: isolate 9 (antibiotic-resistant)
From the text: as §1, §2

[31] = system: Acinetobacter baumannii_isolate 7 (antibiotic-resistant); assay type: cell-based, Acinetobacter baumannii; details: isolate 7 (antibiotic-resistant)
From the text: as §1, §2

[32] = system: Acinetobacter baumannii_isolate 14 (antibiotic-resistant); assay type: cell-based, Acinetobacter baumannii; details: isolate 14 (antibiotic-resistant)
From the text: as §1, §2

Row | MIC [1] [µM] | MIC [2] [µM] | MIC [3] [µM] | MIC [4] [µM] | MIC [5] [µM] | MIC [6] [µM] | MIC [7] [µM] | MIC [8] [µM] | MIC [9] [µM] | MIC [10] [µM] | MIC [11] [µM] | MIC [12] [µM] | MIC [13] [µM] | MIC [14] [µM] | MIC [15] [µM] | MIC [16] [µM] | MIC [17] [µM] | MIC [18] [µM] | MIC [19] [µM] | MIC [20] [µM] | SMILES | also measured
1 | 2 (≈ 5.26 µg/mL) | 2 (≈ 5.26 µg/mL) | 2 (≈ 5.26 µg/mL) | 2 (≈ 5.26 µg/mL) | 2 (≈ 5.26 µg/mL) | 1 (≈ 2.63 µg/mL) | 4 (≈ 10.5 µg/mL) | 2 (≈ 5.26 µg/mL) | 2 (≈ 5.26 µg/mL) | 2 (≈ 5.26 µg/mL) | 2 (≈ 5.26 µg/mL) | 2 (≈ 5.26 µg/mL) | 2 (≈ 5.26 µg/mL) | 4 (≈ 10.5 µg/mL) | 2 (≈ 5.26 µg/mL) | 2 (≈ 5.26 µg/mL) | 2 (≈ 5.26 µg/mL) | 2 (≈ 5.26 µg/mL) | 2 (≈ 5.26 µg/mL) | 2 (≈ 5.26 µg/mL) | CC[C@H](C)[C@H](NC(=O)[C@H](C)NC(=O)[C@H](CC(C)C)NC(=O)[C@@H]1CCCN1C(=O)[C@@H](NC(=O)[C@H](CC(C)C)NC(=O)[C@H](CCC(N)=O)NC(=O)[C@H](Cc1c[nH]c2ccccc12)NC(=O)[C@H](Cc1ccccc1)NC(=O)[C@H](CCCNC(=N)N)NC(=O)[C@@H](N)CCCCN)C(C)C)C(=O)N[C@@H](CCCCN)C(=O)N[C@H](C(=O)N[C@@H](Cc1ccc(O)cc1)C(=O)N[C@@H](CCCNC(=N)N)C(=O)N[C@@H](C)C(=O)N[C@@H](Cc1c[nH]c2ccccc12)C(=O)N[C@@H](CCCCN)C(=O)N[C@@H](CCCNC(=N)N)C(=O)N[C@@H](CCCNC(=N)N)C(N)=O)[C@@H](C)CC [dCATH, reference compound] (H-KRFWQLVPLAIKIYRAWKRR-NH2; N-terminus assumed) | MIC [21]: 2 µM (≈ 5.26 µg/mL); MIC [22]: 2 µM (≈ 5.26 µg/mL); MIC [23]: 2 µM (≈ 5.26 µg/mL); MIC [24]: 2 µM (≈ 5.26 µg/mL); MIC [25]: 2 µM (≈ 5.26 µg/mL); MIC [26]: 2 µM (≈ 5.26 µg/mL); MIC [27]: 2 µM (≈ 5.26 µg/mL); MIC [28]: 2 µM (≈ 5.26 µg/mL); MIC [29]: 2 µM (≈ 5.26 µg/mL); MIC [30]: 2 µM (≈ 5.26 µg/mL); MIC [31]: 4 µM (≈ 10.5 µg/mL); MIC [32]: 2 µM (≈ 5.26 µg/mL)
2 | 2 (≈ 5 µg/mL) | 2 (≈ 5 µg/mL) | 0.5 (≈ 1.25 µg/mL) | 2 (≈ 5 µg/mL) | 1 (≈ 2.5 µg/mL) | 2 (≈ 5 µg/mL) | 1 (≈ 2.5 µg/mL) | 1 (≈ 2.5 µg/mL) | 1 (≈ 2.5 µg/mL) | 1 (≈ 2.5 µg/mL) | 1 (≈ 2.5 µg/mL) | 1 (≈ 2.5 µg/mL) | 1 (≈ 2.5 µg/mL) | 2 (≈ 5 µg/mL) | 2 (≈ 5 µg/mL) | 1 (≈ 2.5 µg/mL) | 2 (≈ 5 µg/mL) | 1 (≈ 2.5 µg/mL) | 2 (≈ 5 µg/mL) | 1 (≈ 2.5 µg/mL) | CC[C@H](C)[C@H](NC(=O)[C@H](C)NC(=O)[C@H](CCCCN)NC(=O)[C@H](CCCCN)NC(=O)[C@@H](NC(=O)[C@H](CC(C)C)NC(=O)[C@H](CCC(N)=O)NC(=O)[C@H](C)NC(=O)[C@H](C)NC(=O)[C@H](CCCNC(=N)N)NC(=O)[C@@H](N)CCCCN)C(C)C)C(=O)N[C@@H](CCCCN)C(=O)N[C@@H](CCCCN)C(=O)N[C@@H](Cc1ccc(O)cc1)C(=O)N[C@@H](CCCNC(=N)N)C(=O)N[C@@H](C)C(=O)N[C@@H](Cc1c[nH]c2ccccc12)C(=O)N[C@@H](CCCCN)C(=O)N[C@@H](CCCNC(=N)N)C(=O)N[C@@H](CCCNC(=N)N)C(N)=O [dCATH-A6] (H-KRAAQLVKKAIKKYRAWKRR-NH2; N-terminus assumed) | antimicrobial activity compared to the control peptide dCATH ([3]; against Staphylococcus aureus strains): notably superior activity; antimicrobial activity compared to the control peptide dCATH ([5]; against Acinetobacter baumannii): significantly superior antimicrobial activity; MIC [21]: 1 µM (≈ 2.5 µg/mL); MIC [22]: 1 µM (≈ 2.5 µg/mL); MIC [23]: 1 µM (≈ 2.5 µg/mL); MIC [24]: 1 µM (≈ 2.5 µg/mL); MIC [25]: 1 µM (≈ 2.5 µg/mL); MIC [26]: 1 µM (≈ 2.5 µg/mL); MIC [27]: 2 µM (≈ 5 µg/mL); MIC [28]: 1 µM (≈ 2.5 µg/mL); MIC [29]: 1 µM (≈ 2.5 µg/mL); MIC [30]: 1 µM (≈ 2.5 µg/mL); MIC [31]: 1 µM (≈ 2.5 µg/mL); MIC [32]: 2 µM (≈ 5 µg/mL)
